Source: patent US20220151890A1, “EFFICIENT SUNSCREEN COMPOSITIONS WITH DIETHYLAMINO HYDROXYBENZOYL HEXYL BENZOATE AND BUTYL METHOXYDIBENZOYLMETHANE” (BASF SE, priority 2019, published 2022)
Counter-ions that a name gives are not always drawn.

Assays:
[1] = Recovery measurements on photo stability of BEMT (irradiated film on quartz plates, HPLC); format: physicochemical; details: presence of BMDBM in the composition
Description: Recovery measurements on photo stability of BEMT
The sunscreen and UV filter compositions as defined above are applied on roughened quartz plates (2 μl/cm^2). Plates are irradiated using Atlas CPS device at different duration times:
(§1) 0h (0 MED, no irradiation)
4h (20 MED). In total, four plates are prepared for each irradiation condition. After irradiation, each plate is rinsed off with tetrahydrofuran. The rinsing solution is further analyzed via HPLC to determine the recovery of BEMT.

[2] = description of the commercial UV filter; cited from earlier work
[3] = Recovery measurements on photo stability of BMDBM (irradiated film on quartz plates, HPLC); format: physicochemical; details: octocrylene free sunscreen composition
Description: Recovery measurements on photo stability of BMDBM
The sunscreen and UV filter compositions as defined above are applied on roughened quartz plates (2 μl/cm^2). Plates are irradiated using Atlas CPS device at different duration times (MED=Minimal Erythema Dose):
as §1
4h (20 MED). In total, four plates are prepared for each irradiation condition. After irradiation, each plate is rinsed off with tetrahydrofuran. The rinsing solution is further analyzed via HPLC to determine the recovery of BMDBM.

[4] = UV filter performance: wavelength of maximum absorbance of DHHB in emollient; format: physicochemical; details: DHHB dissolved in the listed emollient; UV/Vis 290 to 400nm, 1 cm cuvette
Description: (§2) The wavelength of maximum absorbance (,max) is an indicator to describe the performance of a UV filter molecule. It gives the wavelength at which the absorbance is at maximum. […] The UV transmission spectrum of each UV filter - emollient mixture was measured from 290 to 400nm using a UV/Vis spectrophotometer Perkin Elmer Lambda 25. Three stock solutions with a concentration of 1mM of UV filter were prepared for each mixture. Further, three dilutions of each stock solution were prepared resulting in nine measurements in total per UV filter-emollient solution. Then, all solutions were filled in UV transparent quartz cuvette of 1 cm optical path-length for UV Transmission measurements.

[5] = Measurement of interfacial tension (polarity index) of emollients; format: physicochemical; details: interfacial tension between emollient and water, Tensimat Densimat TD2000
Source text: The term “polarity index” refers to non-polar or polar oils. Non-polar oils are mainly based on hydrocarbons and lack an electronegative element, such as oxygen. In contrast, polar oils contain heteroatoms that differ in electronegativity, which results in a dipole moment. However, such oils are still insoluble in water, i.e. hydrophob. The polarity index can be determined by measuring the interfacial tension between the respective oil and water.
Measurement of interfacial tension (polarity index)
Interfacial tension of the respective emollients as listed below was measured using a Tensimat Densimat TD2000.

[6] = UV filter performance: wavelength of maximum absorbance of BMDBM in emollient; format: physicochemical; details: BMDBM dissolved in the listed emollient; UV/Vis 290 to 400nm, 1 cm cuvette
Description: as §2

| Structure (SMILES) | absorption maximum [2] [nm] | λmax values (DHHB) [4] [nm] | polarity index [5] [mN/m] | λmax values (BMDBM) [6] [nm] | further results |
| --- | --- | --- | --- | --- | --- |
| COc1ccc(C(=O)CC(=O)c2ccc(C(C)(C)C)cc2)cc1 [BMDBM, 1-(4-(1,1-dimethylethyl)phenyl)-3-(4-methoxyphenyl)propane-1,3-dione] | 357 | – | – | – | effect on stability of BEMT, in words [1]: destabilizes the UV filter BEMT |
| CCCCCCOC(=O)c1ccccc1C(=O)c1ccc(N(CC)CC)cc1O [DHHB, hexyl 2-[4-(diethylamino)-2-hydroxybenzoyl]benzoate] | 354 | – | – | – | effect on photo stability of BMDBM and BEMT, in words [3]: stabilizes the UV filter BMDBM and BEMT |
| CCCCOC(=O)CCCCC(=O)OCCCC [dibutyl adipate] | – | 351 | – | – | – |
| CCCCC(CC)COC(=O)c1ccc(Nc2nc(Nc3ccc(C(=O)NC(C)(C)C)cc3)nc(Nc3ccc(C(=O)OCC(CC)CCCC)cc3)n2)cc1 (stereo not drawn) [diethylhexyl-butamidotriazone, 4,4′-[[6-[[4-[[(1,1-dimethylethyl)amino]carbonyl]phenyl]amino]-1,3,5-triazin-2,4-diyl]diimino]bis-benzoic acid-bis(2-ethylhexyl)ester] | 310 | – | – | – | – |
| CC(C)OC(=O)CCCCC(=O)OC(C)C [diisopropyl adipate] | – | 351 | 12 | 357 | – |
| CC(C)OC(=O)CCCCCCCCC(=O)OC(C)C [diisopropyl sebacate] | – | 350 | – | 357 | – |
| CCCCCCCCCCCCCC(=O)OC(C)C [isopropyl myristate] | – | – | – | 357 | – |
| CCCCCCCCCCC(CO)CCCCCCCC (stereo not drawn) [octyldodecanol] | – | 349 | 25 | 357 | – |
| O=C(OCCc1ccccc1)c1ccccc1 [phenethyl benzoate] | – | 355 | 19 | 362 | – |
| CCCCOC(=O)CC(O)(CC(=O)OCCCC)C(=O)OCCCC [tributyl citrate] | – | 352 | 10 | 359 | – |
| CCOC(=O)CC(O)(CC(=O)OCC)C(=O)OCC [triethyl citrate] | – | 353 | – | 359 | – |
| c1ccc(-c2ccc(-c3nc(-c4ccc(-c5ccccc5)cc4)nc(-c4ccc(-c5ccccc5)cc4)n3)cc2)cc1 [tris-biphenyl triazine, 2,4,6-Tris(biphenyl-4-yl)-1,3,5-triazine] | 310 | – | – | – | – |
